{
  "source": "patent US11986457B2",
  "about": "“Nutraceutical compositions” (SpecNova LLC, priority 2021, dated 2024)",
  "molecular_target": "Human Dopamine Transporter (DAT) (Homo sapiens, UniProt Q01959)",
  "sequence (Q01959 whole entry)": "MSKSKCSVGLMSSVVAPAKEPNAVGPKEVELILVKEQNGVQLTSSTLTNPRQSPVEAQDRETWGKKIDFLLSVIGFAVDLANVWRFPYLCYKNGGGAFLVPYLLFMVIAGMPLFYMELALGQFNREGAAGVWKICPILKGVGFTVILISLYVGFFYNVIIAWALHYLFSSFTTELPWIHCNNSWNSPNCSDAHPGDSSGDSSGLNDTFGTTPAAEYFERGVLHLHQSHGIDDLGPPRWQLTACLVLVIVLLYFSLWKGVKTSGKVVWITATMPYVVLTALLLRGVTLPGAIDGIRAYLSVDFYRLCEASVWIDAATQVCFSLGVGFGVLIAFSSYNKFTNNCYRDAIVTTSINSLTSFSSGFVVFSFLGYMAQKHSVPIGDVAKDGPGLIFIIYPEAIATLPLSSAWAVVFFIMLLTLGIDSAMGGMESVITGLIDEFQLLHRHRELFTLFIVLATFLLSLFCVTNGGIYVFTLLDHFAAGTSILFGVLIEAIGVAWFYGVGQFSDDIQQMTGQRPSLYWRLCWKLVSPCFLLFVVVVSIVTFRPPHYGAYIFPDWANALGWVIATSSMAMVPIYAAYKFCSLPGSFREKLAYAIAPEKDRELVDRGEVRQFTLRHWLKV",
  "assay": "Human Dopamine Transporter (DAT) Binding (Antagonist Radioligand) Assay",
  "conditions": "for level of inhibition in the dopamine transporter inhibitory assay: statement in words in the description",
  "description": "Human Dopamine Transporter (DAT) Binding (Antagonist Radioligand) Assay\nNonspecific binding is determined in the presence of 10 μM BTCP. Following incubation, the samples are filtered rapidly under vacuum through glass fiber filters (GF/B, Packard) presoaked with 0.3% PEI and rinsed several times with ice-cold 50 mM Tris-HCl using a 96-sample cell harvester (Unifilter, Packard). The filters are dried then counted for radioactivity in a scintillation counter (Topcount, Packard) using a scintillation cocktail (Microscint 0, Packard). The results are expressed as a percent inhibition of the control radioligand specific binding.",
  "data": [
    {"smiles": "CC(C)=CCc1c(C2CCc3ccc(O)cc3O2)ccc(O)c1O", "note": "(stereo in doubt) [Kazinol U, 4-[(2S)-7-hydroxy-3,4-dihydro-2H-chromen-2-yl]-3-(3-methylbut-2-enyl)benzene-1,2-diol]", "values": [
      {"measurement": "level of inhibition in the dopamine transporter inhibitory assay", "value": "high level of inhibition"}
    ]},
    {"smiles": "OC[C@@H](O)[C@@H](/C=C/c1ccc(O)cc1)c1ccc(O)cc1", "note": "[Agatharesinol, (2S,3S,4E)-3,5-bis(4-hydroxyphenyl)pent-4-ene-1,2-diol]", "values": [
      {"measurement": "% of Control Specific Binding (mean of two tests)", "setting": "[3H]BTCP 4 nM radioligand, mean of two tests", "value": 4.6, "unit": "%"},
      {"measurement": "level of inhibition in the dopamine transporter inhibitory assay", "value": "extremely high level of inhibition"}
    ]},
    {"smiles": "OC[C@@H](O)[C@@H](/C=C/c1ccc(O)cc1)c1ccc(O)c(O)c1", "note": "[Sequirin C, 4-[(1S,2E)-1-[(1S)-1,2-dihydroxyethyl]-3-(4-hydroxyphenyl)prop-2-en-1-yl]benzene-1,2-diol]", "values": [
      {"measurement": "level of inhibition in the dopamine transporter inhibitory assay", "value": "extremely high level of inhibition"}
    ]}
  ]
}
